Experimental data published in the supplement of paper PMC10307832.

Legend:
Assay in all cases: relative viability (nuclei count vs DMSO), 5 days (fraction); higher = more cells survive
NCI-H1623 = system: NCI-H1623
Method in brief: (§1)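 The day after seeding in 1536-well plates, lung cancer cell lines were treated by pin tool with a single drug, or with a fixed anchor-drug dose together with five library-drug doses (not always all listed) in √10 steps. After 5 days, a combined fix-and-stain solution (final 0.05% Triton X-100, 1% formaldehyde, 1 ug/ml Hoechst) was added. Nuclei counted on 4× images gave relative viability as treated counts over vehicle counts, reported as the median of duplicate plates.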

NCI-H1993 = system: NCI-H1993
Method in brief: as §1

A549 = system: A549
Method in brief: as §1

NCI-H596 = system: NCI-H596
Method in brief: as §1

NCI-H23 = system: NCI-H23
Method in brief: as §1

NCI-H522 = system: NCI-H522
Method in brief: as §1

SMILES: O=C(O)c1ccc(-c2c[nH]c3ncc(-c4ccccc4)cc23)cc1C1CCCC1 + N=C(N)NC(=N)NCCc1ccccc1 [Phenformin] (partner 250 µM)
- relative viability (NCI-H1623; first compound 0.04 µM): 0.618
- relative viability (NCI-H1623; first compound 0.1265 µM): 0.575
- relative viability (NCI-H1623; first compound 0.4 µM): 0.615
- relative viability (NCI-H1623; first compound 1.265 µM): 0.564
- relative viability (NCI-H1993; first compound 0.04 µM): 0.574
- relative viability (NCI-H1993; first compound 0.1265 µM): 0.475
- relative viability (NCI-H1993; first compound 0.4 µM): 0.477
- relative viability (NCI-H1993; first compound 1.265 µM): 0.513
- relative viability (A549; first compound 0.04 µM): 0.168
- relative viability (A549; first compound 0.1265 µM): 0.197
- relative viability (A549; first compound 0.4 µM): 0.187
- relative viability (A549; first compound 1.265 µM): 0.0803
- relative viability (NCI-H596; first compound 0.04 µM): 0.772
- relative viability (NCI-H596; first compound 0.1265 µM): 0.808
- relative viability (NCI-H596; first compound 0.4 µM): 0.79
- relative viability (NCI-H596; first compound 1.265 µM): 0.737
- relative viability (NCI-H23; first compound 0.04 µM): 0.776
- relative viability (NCI-H23; first compound 0.1265 µM): 0.902
- relative viability (NCI-H23; first compound 0.4 µM): 0.814
- relative viability (NCI-H23; first compound 1.265 µM): 0.613
- relative viability (NCI-H522; first compound 0.04 µM): 0.686
- relative viability (NCI-H522; first compound 0.1265 µM): 0.724
- relative viability (NCI-H522; first compound 0.4 µM): 0.549
- relative viability (NCI-H522; first compound 1.265 µM): 0.65

SMILES: O=C(O)c1ccc(-c2c[nH]c3ncc(-c4ccccc4)cc23)cc1C1CCCC1 + Cc1nc(Nc2ncc(C(=O)Nc3c(C)cccc3Cl)s2)cc(N2CCN(CCO)CC2)n1 [Dasatinib] (partner 0.075 µM)
- relative viability (NCI-H1623; first compound 0.04 µM): 0.537
- relative viability (NCI-H1623; first compound 0.1265 µM): 0.502
- relative viability (NCI-H1623; first compound 0.4 µM): 0.535
- relative viability (NCI-H1623; first compound 1.265 µM): 0.545
- relative viability (NCI-H1993; first compound 0.04 µM): 0.592
- relative viability (NCI-H1993; first compound 0.1265 µM): 0.568
- relative viability (NCI-H1993; first compound 0.4 µM): 0.601
- relative viability (NCI-H1993; first compound 1.265 µM): 0.572
- relative viability (NCI-H596; first compound 0.04 µM): 0.596
- relative viability (NCI-H596; first compound 0.1265 µM): 0.572
- relative viability (NCI-H596; first compound 0.4 µM): 0.601
- relative viability (NCI-H596; first compound 1.265 µM): 0.639
- relative viability (NCI-H23; first compound 0.04 µM): 0.82
- relative viability (NCI-H23; first compound 0.1265 µM): 1.04
- relative viability (NCI-H23; first compound 0.4 µM): 0.729
- relative viability (NCI-H23; first compound 1.265 µM): 0.717
- relative viability (NCI-H522; first compound 0.04 µM): 0.833
- relative viability (NCI-H522; first compound 0.1265 µM): 0.887
- relative viability (NCI-H522; first compound 0.4 µM): 0.714
- relative viability (NCI-H522; first compound 1.265 µM): 0.851

SMILES: CC1(C)CCC(c2ccc(Cl)cc2)=C(CN2CCN(c3ccc(C(=O)NS(=O)(=O)c4ccc(N[C@H](CCN5CCOCC5)CSc5ccccc5)c(S(=O)(=O)C(F)(F)F)c4)cc3)CC2)C1 [Navitoclax] + N=C(N)NC(=N)NCCc1ccccc1 [Phenformin] (partner 250 µM)
- relative viability (NCI-H1623; first compound 0.005 µM): 0.624
- relative viability (NCI-H1623; first compound 0.01581 µM): 0.671
- relative viability (NCI-H1623; first compound 0.05 µM): 0.58
- relative viability (NCI-H1623; first compound 0.1581 µM): 0.567
- relative viability (NCI-H1623; first compound 0.5 µM): 0.555
- relative viability (NCI-H1993; first compound 0.005 µM): 0.545
- relative viability (NCI-H1993; first compound 0.01581 µM): 0.498
- relative viability (NCI-H1993; first compound 0.05 µM): 0.629
- relative viability (NCI-H1993; first compound 0.1581 µM): 0.587
- relative viability (NCI-H1993; first compound 0.5 µM): 0.616
- relative viability (A549; first compound 0.005 µM): 0.146
- relative viability (A549; first compound 0.01581 µM): 0.19
- relative viability (A549; first compound 0.05 µM): 0.144
- relative viability (A549; first compound 0.1581 µM): 0.157
- relative viability (A549; first compound 0.5 µM): 0.146
- relative viability (NCI-H596; first compound 0.005 µM): 0.742
- relative viability (NCI-H596; first compound 0.01581 µM): 0.71
- relative viability (NCI-H596; first compound 0.1581 µM): 0.67
- relative viability (NCI-H596; first compound 0.5 µM): 0.815
- relative viability (NCI-H23; first compound 0.005 µM): 0.759
- relative viability (NCI-H23; first compound 0.01581 µM): 0.818
- relative viability (NCI-H23; first compound 0.05 µM): 0.662
- relative viability (NCI-H23; first compound 0.1581 µM): 0.783
- relative viability (NCI-H23; first compound 0.5 µM): 0.799
- relative viability (NCI-H522; first compound 0.005 µM): 0.633
- relative viability (NCI-H522; first compound 0.01581 µM): 0.603
- relative viability (NCI-H522; first compound 0.05 µM): 0.701
- relative viability (NCI-H522; first compound 0.1581 µM): 0.695
- relative viability (NCI-H522; first compound 0.5 µM): 0.699
